# Data from patent publication US20260216170A1, “TETRAHYDROISOQUINOLINE HETEROBIFUNCTIONAL BCL-XL DEGRADERS” (Treeline Biosciences, Inc., priority 2023, published 2026).
# Biological target: T1, Human BCL-XL protein (N-terminal HiBiT tagged BCL-XL expressed in HT1080 cells) (Homo sapiens, UniProt Q07817)
# T1 construct: expressed in transfected cells; host or cells: HT-1080 (ATCC CCL-121), stably transduced with lentivirus pLV-UBC-N-HiBiT-BCL-XL-PGK-puro and selected with puromycin
# Test: HiBiT Based Degradation Assay
# Type: cell-based
# Conditions: 24 hours incubation; for DC50: BCL-XL degradation, HT1080 cells expressing N-HiBiT-BCL-XL, normalized with DMSO control, geometric mean for multiple data points, read-out: EC50 (24 h); for Ymin (24 h): bottom of BCL-XL degradation curve (remaining HiBiT-BCL-XL signal vs DMSO control), HT1080 cells
# Source text: HiBiT Based Degradation Assay
# Human BCL-XL protein coding open reading frame fused with N-terminal HiBiT coding sequence (N-HiBiT-BCL-XL) was synthesized from Integrated DNA Technologies (IDT). Next, N-HiBiT-BCL-XL sequence was cloned into pLV-UBC-PGK-Puro, a lentivirus plasmid purchased from Vectorbuilder, to generate pLV-UBC-N-HiBiT-BCL-XL-PGK-puro. Lentiviral particles were generated from Lenti-X™ 293T cells (Clontech) by co-transfection of pLV-UBC-N-HiBiT-BCL-XL-PGK-puro plasmids and lentiviral packaging plasmid mix (Cellecta). HT-1080 [HT1080](ATCC CCL-121™) cells were infected with the lentivirus, and HT1080 cells stably integrated with the lentiviral vector were established by incubation with 1 μg/mL puromycin (Thermofisher). HT1080 cells expressing N-terminal HiBiT tagged BCL-XL were dispensed into 384-well plates pre-spotted with compounds at varying concentrations. Three thousand cells were seeded into each well in 40 μL of RPMI 1640 media. After 24 hours of incubation at 37° C. with 5% CO2, 30 μL of the NANO-GLO® HiBiT Lytic Detection System working solution (Promega) was added to each well and incubated at room temperature for 30 min. After incubation, luminescence was read on a PHERAstar FSX Plate Reader (BMG). BCL-XL degradation at each indicated concentration was normalized with DMSO control. The BCL-XL degradation curves were plotted using a four-parameter logistic model. For compounds displaying hook effects, curve fitting was performed using bottom point of hook curves (i.e., the point of Ymin) as bottom plateau to calculate EC50. For compounds with multiple data points, the geometric mean is presented.
# T1 sequence (Q07817 whole entry): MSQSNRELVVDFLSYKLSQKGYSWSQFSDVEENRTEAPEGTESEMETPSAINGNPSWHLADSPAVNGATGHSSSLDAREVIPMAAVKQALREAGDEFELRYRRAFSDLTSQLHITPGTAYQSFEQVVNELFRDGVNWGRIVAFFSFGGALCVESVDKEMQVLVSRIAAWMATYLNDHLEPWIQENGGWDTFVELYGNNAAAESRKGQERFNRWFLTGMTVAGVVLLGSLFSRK
Structure (SMILES),DC50 [nM],Ymin (24 h)
Cn1nc(C2CCC(=O)NC2=O)c2ccc(NC(=O)CN3CCC(CCCOc4ccc(-c5ccc(N6CCc7cccc(C(=O)Nc8nc9ccccc9s8)c7C6)nc5C(=O)O)c(C(F)(F)F)c4)CC3)c(F)c21 (centres unmarked) [Compound 183],10 to 100,B (30% ≤ Ymin < 50%)
Cn1nc(C2CCC(=O)NC2=O)c2ccc(NC(=O)CN3CCC4(CC3)CC(Oc3ccc(-c5ccc(N6CCc7cccc(C(=O)Nc8nc9ccccc9s8)c7C6)nc5C(=O)O)c(C(F)(F)F)c3)C4)c(F)c21 (centres unmarked) [Compound 189],< 10,B (30% ≤ Ymin < 50%)
"COc1c(NC(=O)CN2CCC3(CC2)CC(Oc2ccc(-c4ccc(N5CCc6cccc(C(=O)Nc7nc8ccccc8s7)c6C5)nc4C(=O)O)c(C)c2)C3)ccc2c(C3CCC(=O)NC3=O)nn(C)c12 (centres unmarked) [Compound 170, 6-(8-(benzo[d]thiazol-2-ylcarbamoyl)-3,4-dihydroisoquinolin-2(1H)-yl)-3-(4-((7-(2-((3-(2,6-dioxopiperidin-3-yl)-7-methoxy-1-methyl-1H-indazol-6-yl)amino)-2-oxoethyl)-7-azaspiro[3.5]nonan-2-yl)oxy)-2-methylphenyl)picolinic acid]",< 10,A (Ymin < 30%)
"Cc1cc(OCC2CC3(CCN(CC(=O)Nc4ccc5c(C6CCC(=O)NC6=O)nn(C)c5c4)CC3)C2)ccc1-c1ccc(N2CCc3ccnc(C(=O)Nc4nc5ccccc5s4)c3C2)nc1C(=O)O (centres unmarked) [Compound 135, 6-[8-(1,3-benzothiazol-2-ylcarbamoyl)-3,4-dihydro-1H-2,7-naphthyridin-2-yl]-3-[4-[[7-[2-[[3-(2,6-dioxo-3-piperidyl)-1-methyl-indazol-6-yl]amino]-2-oxo-ethyl]-7-azaspiro[3.5]nonan-2-yl]methoxy]-2-methyl-phenyl]pyridine-2-carboxylic acid]",< 10,A (Ymin < 30%)
Cc1c(OCC2CC3(CCN(CC(=O)Nc4ccc5c(C6CCC(=O)NC6=O)nn(C)c5c4C(F)(F)F)CC3)C2)cccc1-c1ccc(N2CCc3cccc(C(=O)Nc4nc5ccccc5s4)c3C2)nc1C(=O)O (centres unmarked) [Compound 137],10 to 100,C (50% ≤ Ymin < 70%)
Cn1nc(C2CCC(=O)NC2=O)c2ccc(NC(=O)CN3CCC4(CCC(Oc5cccc(-c6ccc(N7CCc8cccc(C(=O)Nc9nc%10ccccc%10s9)c8C7)nc6C(=O)O)c5C(F)(F)F)CC4)CC3)cc21 (centres unmarked) [Compound 196],< 10,B (30% ≤ Ymin < 50%)
"Cc1cc(OCC2CC3(CCN(CC(=O)Nc4ccc5c(C6CCC(=O)NC6=O)nn(C)c5c4F)CC3)C2)ccc1-c1ccc(N2CCc3cccc(C(=O)Nc4nc5ccccc5s4)c3C2)nc1C(=O)O (centres unmarked) [Compound 122, 6-(8-(benzo[d]thiazol-2-ylcarbamoyl)-3,4-dihydroisoquinolin-2(1H)-yl)-3-(4-((7-(2-((3-(2,6-dioxopiperidin-3-yl)-7-fluoro-1-methyl-1H-indazol-6-yl)amino)-2-oxoethyl)-7-azaspiro[3.5]nonan-2-yl)methoxy)-2-methylphenyl)picolinic acid]",10 to 100,B (30% ≤ Ymin < 50%)
"COc1c(NC(=O)CN2CCC3(CC2)CC(Oc2cccc(-c4ccc(N5CCc6ccnc(C(=O)Nc7nc8ccccc8s7)c6C5)nc4C(=O)O)c2C)C3)ccc2c(C3CCC(=O)NC3=O)nn(C)c12 (centres unmarked) [Compound 184, 6-[8-(1,3-benzothiazol-2-ylcarbamoyl)-3,4-dihydro-1H-2,7-naphthyridin-2-yl]-3-[3-[[7-[2-[[3-(2,6-dioxo-3-piperidyl)-7-methoxy-1-methyl-indazol-6-yl]amino]-2-oxo-ethyl]-7-azaspiro[3.5]nonan-2-yl]oxy]-2-methyl-phenyl]pyridine-2-carboxylic acid]",< 10,B (30% ≤ Ymin < 50%)
Cn1nc(C2CCC(=O)NC2=O)c2ccc(NC(=O)CN3CCC4(CC3)CC(Oc3ccc(-c5ccc(N6CCc7ccnc(C(=O)Nc8nc9ccccc9s8)c7C6)nc5C(=O)O)c(C(F)(F)F)c3)C4)c(F)c21 (centres unmarked) [Compound 203],10 to 100,B (30% ≤ Ymin < 50%)
COc1cc2c(C3CCC(=O)NC3=O)nn(C)c2cc1NC(=O)CN1CCC2(CC1)CC(COc1cccc(-c3ccc(N4CCc5cccc(C(=O)Nc6nc7ccccc7s6)c5C4)nc3C(=O)O)c1C)C2 (centres unmarked) [Compound 126],100 to 1000,C (50% ≤ Ymin < 70%)
"COc1c(NC(=O)CN2CCC3(CC2)CC(COc2cccc(-c4ccc(N5CCc6cccc(C(=O)Nc7nc8ccccc8s7)c6C5)nc4C(=O)O)c2C(F)(F)F)C3)ccc2c(C3CCC(=O)NC3=O)nn(C)c12 (centres unmarked) [Compound 143, 6-(8-(benzo[d]thiazol-2-ylcarbamoyl)-3,4-dihydroisoquinolin-2(1H)-yl)-3-(3-((7-(2-((3-(2,6-dioxopiperidin-3-yl)-7-methoxy-1-methyl-1H-indazol-6-yl)amino)-2-oxoethyl)-7-azaspiro[3.5]nonan-2-yl)methoxy)-2-(trifluoromethyl)phenyl)picolinic acid]",10 to 100,B (30% ≤ Ymin < 50%)
Cc1c(OCCN2CCCC23CCN(CC(=O)Nc2ccc4c(C5CCC(=O)NC5=O)nn(C)c4c2)CC3)cccc1-c1ccc(N2CCc3cccc(C(=O)Nc4nc5ccccc5s4)c3C2)nc1C(=O)O (centres unmarked) [Compound 177],< 10,B (30% ≤ Ymin < 50%)
"Cc1c(OCC2CC3(CCN(CC(=O)Nc4ccc5c(C6CCC(=O)NC6=O)nn(C)c5c4)CC3)C2)cccc1-c1ccc(N2CCc3ccnc(C(=O)Nc4nc5ccccc5s4)c3C2)nc1C(=O)O (centres unmarked) [Compound 134, 6-(8-(benzo[d]thiazol-2-ylcarbamoyl)-3,4-dihydro-2,7-naphthyridin-2(1H)-yl)-3-(3-((7-(2-((3-(2,6-dioxopiperidin-3-yl)-1-methyl-1H-indazol-6-yl)amino)-2-oxoethyl)-7-azaspiro[3.5]nonan-2-yl)methoxy)-2-methylphenyl)picolinic acid]",10 to 100,B (30% ≤ Ymin < 50%)
COc1c(NC(=O)CN2CC[C@H](CCCOc3ccc(-c4ccc(N5CCc6cccc(C(=O)Nc7nc8ccccc8s7)c6C5)nc4C(=O)O)c(C)c3)C[C@H]2C)ccc2c(C3CCC(=O)NC3=O)nn(C)c12 (some centres unmarked) [Compound 210c],< 10,A (Ymin < 30%)
COc1c(NC(=O)CN2CCC(CCCOc3ccc(-c4ccc(N5CCc6cccc(C(=O)Nc7nc8ccccc8s7)c6C5)nc4C(=O)O)c(C(F)(F)F)c3)CC2)ccc2c(C3CCC(=O)NC3=O)nn(C)c12 (centres unmarked) [Compound 142],10 to 100,A (Ymin < 30%)

# The remaining lines, values ahead:
DC50 [nM],Ymin (24 h),Structure (SMILES)
10 to 100,B (30% ≤ Ymin < 50%),"Cc1c(OC[C@@H]2C[C@H]2C2CCN(CC(=O)Nc3ccc4c(C5CCC(=O)NC5=O)nn(C)c4c3)CC2)cccc1-c1ccc(N2CCc3cccc(C(=O)Nc4nc5ccccc5s4)c3C2)nc1C(=O)O (single isomer, unassigned) [Compound 1001a]"
10 to 100,B (30% ≤ Ymin < 50%),"Cc1c(OC[C@H]2C[C@@H]2CC2CCN(CC(=O)Nc3ccc4c(C5CCC(=O)NC5=O)nn(C)c4c3)CC2)cccc1-c1ccc(N2CCc3cccc(C(=O)Nc4nc5ccccc5s4)c3C2)nc1C(=O)O (single isomer, unassigned) [Compound 1004a]"
10 to 100,C (50% ≤ Ymin < 70%),Cc1cc(OCCCC2CCN(Cc3nc4ccc(C5CCC(=O)NC5=O)cc4[nH]3)CC2)ccc1-c1ccc(N2CCc3cccc(C(=O)Nc4nc5ccccc5s4)c3C2)nc1C(=O)O (centres unmarked) [Compound 2003]
10 to 100,B (30% ≤ Ymin < 50%),"Cc1cc(O[C@@H](C)CCC2CCN(CC(=O)Nc3ccc4c(C5CCC(=O)NC5=O)nn(C)c4n3)CC2)ccc1-c1ccc(N2CCc3cccc(C(=O)Nc4nc5ccccc5s4)c3C2)nc1C(=O)O (single isomer, unassigned) [Compound 225a]"
< 10,A (Ymin < 30%),Cc1cc(OCCC[C@H]2CCN(CC(=O)Nc3ccc4c(C5CCC(=O)NC5=O)nn(C)c4c3)[C@H](C)C2)ccc1-c1ccc(N2CCc3ccnc(C(=O)Nc4nc5ccccc5s4)c3C2)nc1C(=O)O (some centres unmarked) [Compound 219c]
< 10,A (Ymin < 30%),"Cc1cc(OCCC[C@H]2CCN(CC(=O)Nc3ccc4c(C5CCC(=O)NC5=O)nn(C)c4c3)[C@@H](C)C2)ccc1-c1ccc(N2CCc3ccnc(C(=O)Nc4nc5ccccc5s4)c3C2)nc1C(=O)O (stereo partly drawn) [Compound 219b, 6-(8-(benzo[d]thiazol-2-ylcarbamoyl)-3,4-dihydro-2,7-naphthyridin-2(1H)-yl)-3-(4-(3-((2S,4S)-1-(2-((3-(2,6-dioxopiperidin-3-yl)-1-methyl-1H-indazol-6-yl)amino)-2-oxoethyl)-2-methylpiperidin-4-yl)propoxy)-2-methylphenyl)picolinic acid]"
< 10,B (30% ≤ Ymin < 50%),Cn1nc(C2CCC(=O)NC2=O)c2ccc(NC(=O)CN3CCC4(CC3)CC(Oc3cccc(-c5ccc(N6CCc7ccnc(C(=O)Nc8nc9ccccc9s8)c7C6)nc5C(=O)O)c3C(F)(F)F)C4)c(F)c21 (centres unmarked) [Compound 214]
